From ChEMBL document CHEMBL2094260, “Malaria Box Tuberculosis Screening Data”

Legend:
[1] = test system: Mycobacterium tuberculosis; assay: MMV: Screen against Mtb, single point, non replicating, at 25uM; type: functional
[2] = test system: Mycobacterium tuberculosis; assay: MMV: Screen against Mtb, single point, replicating, at 25uM; type: functional

Compound | inhibition at 25 µM [1] [%] | inhibition at 25 µM [2] [%]
CCOc1cc(Br)c(C(C)NC(=O)c2cccc(OC)c2)cc1OCC (configuration not stated) | 5.22 | 11.9
CCOC(=O)c1cnc2ccc(Cl)cc2c1NCCCN(C)C | -0.993 | 2.59
CCCCCCOC(=O)C1=C(C)NC(=O)NC1c1ccccc1F (configuration not stated) | 6.8 | 9.78
COc1ccc(C2=C(c3ccc(OC)cc3)C3(c4ccccc4)C(=O)C2(c2ccccc2)C2C(=O)N(c4ccc(C)cc4)C(=O)C23)cc1 (configuration not stated) | 11 | 10.1
COc1ccc(CCn2c(=N)c(C(=O)NCc3cccnc3)cc3c(=O)n4cccc(C)c4nc32)cc1 | 8.77 | 4.47
Oc1ccc(-c2nc(-c3ccc4oc5ccc(-c6[nH]c(-c7ccc(O)cc7)nc6-c6ccccc6)cc5c4c3)c(-c3ccccc3)[nH]2)cc1 | 13 | 19.2
COc1ccc(-c2nonc2NC(=O)c2cccc(Cl)c2)cc1OC | 15.7 | 9.93
COc1ccccc1CNC(=O)C1c2ccccc2C(=O)N(CC(C)C)C1c1cccs1 (configuration not stated) | 9.76 | 15.7
COc1ccc(/C=C2/SC(=Nc3ccccc3)NC2=O)cc1 | 24.4 | 15.9
COc1ccccc1N1C(=N)SC(=Cc2ccc(OCc3ccccc3F)cc2)C1=O | 21.4 | 8.86
N=c1c2ccccc2nnn1-c1cccc(C(F)(F)F)c1 | -4.19 | 7.29
O=C(NC1CCCC1)c1ccc(N2CCC(NCc3cccc(C(F)(F)F)c3)CC2)cc1 | 3.83 | 22.1
CC1=C(CC(=O)c2cccc([N+](=O)[O-])c2)C(=O)c2ccccc2C1=O | 20.1 | 40.5
CN1CCN(c2c3c(c(C#N)c4nc5ccccc5n24)CCC3)CC1 | 4.53 | 7.2
CCOc1cc(Cl)c(C(C)NC(=O)c2ccccc2)cc1OCC (configuration not stated) | 2.61 | 10.4
FC(F)(F)c1ccc(Nc2nnnc3ccccc23)cc1 | 31.2 | 44.2
O=C(Nc1ccc(CN2CCOCC2)cc1)c1ccc(-c2ccc(Br)cc2)o1 | 24.4 | 26
O=C(NC1CCN(Cc2ccccc2)CC1)c1cc(-c2cccnc2)nc2ccc(Cl)cc12 | 18 | 14.3
CCOc1ccc(CCNC(=O)c2cccs2)cc1OCC | 15 | 30
CCCc1c(C)nc2ccc(Br)cc2c1O | 12.5 | 13.7
CCOC(=O)C1=C(c2ccccc2)N=c2sc(=Cc3cc(C)n(-c4ccc(F)cc4)c3C)c(=O)n2C1c1cccc(OC)c1OC (configuration not stated) | 6.1 | 1.88
COc1cc2c3cc1Oc1c(OC)c(OC)cc4c1C(Cc1ccc(O)c(c1)Oc1ccc(cc1)CC3N(C)CC2)N(C)CC4 (configuration not stated) | 18.5 | 3.53
CCCCN(CCCC)S(=O)(=O)c1ccc(NC(=O)c2ccco2)cc1 | 6.97 | 8.56
CCCCc1c(C)nc2c(OC)cccc2c1O | 6.62 | 26.3
COc1ccccc1N1CCN(C(CNS(=O)(=O)c2ccc(Cl)cc2)c2cccnc2)CC1 (configuration not stated) | 15.2 | 4.01
Oc1c2c(nc3cc(-c4ccccc4)nn13)CCCC2 | 10.3 | 19.8

Compound | inhibition at 25 µM [1] [%] | inhibition at 25 µM [2] [%]
Oc1ccccc1CNCC12CC3CC(CC(C3)C1)C2 | 18.7 | 49.7
Cc1ccnc(NC(c2cccc(OCc3ccccc3)c2)c2ccc3cccnc3c2O)c1 (configuration not stated) | 22.3 | 6.19
CCOc1ccc(CN2CCN(CC(O)COc3ccc(OCC(O)CN4CCN(Cc5ccc(OCC)cc5)CC4)cc3)CC2)cc1 (configuration not stated) | 17.5 | 13.2
COc1ccc2c(c1)OC(O)(C(F)(F)C(F)(F)F)CC2=O (configuration not stated) | 20.1 | 23.4
O=C(NC1CCN(Cc2ccccc2)CC1)c1cc(C(=O)NC2CCN(Cc3ccccc3)CC2)cc(C(=O)NC2CCN(Cc3ccccc3)CC2)c1 | 3.44 | 7.92
CCN1CCCC1CNc1[nH]cnc2c3cc(Cl)ccc3nc1-2 (configuration not stated) | 4.53 | 0.0616
Cn1c(C(=O)c2cccc3ccccc23)nc2ccccc21 | 31.5 | 4.31
CC(Oc1ccc(NC(=O)c2cccs2)cc1)C(=O)c1ccc(Cl)cc1 (configuration not stated) | -0.638 | 2.74
CCC1(C)CC(CCNCc2ccccc2O)(c2ccc(C)cc2)CCO1 (configuration not stated) | 2.96 | 14.5
Cc1ccc(CN2CCC(C(=O)Nc3ccc(-c4cc5ccccc5[nH]4)cc3)CC2)o1 | 22.9 | 8.26
COc1ccc(N2CCN(C(CNC(=O)C3CCCCC3)c3ccc4c(c3)OCO4)CC2)cc1 (configuration not stated) | 0.862 | -3.89
Cc1cccc(N2C(=O)C3C(C2=O)C2(c4ccccc4)C(=O)C3(c3ccccc3)C(c3ccc4c(c3)OCO4)=C2c2ccc3c(c2)OCO3)c1 (configuration not stated) | 16.4 | 23.1
CCOC(=O)c1c(NC(=O)c2ccccc2)sc2c(O)c(CN(CC)CC)ccc12 | 16 | 51.8
O=C(NCCCN1CCC(N2CCCCC2)CC1)C1=Cc2cc(Br)ccc2OC1 | 6.82 | 14.7
CCN(CC)CCn1c(=N)n(CC(O)c2ccc(Cl)c(Cl)c2)c2ccccc21 (configuration not stated) | 10.1 | 36.2
Oc1c(C(Nc2ccccn2)c2cccc(Oc3ccccc3)c2)ccc2cccnc12 (configuration not stated) | 11.8 | -15.4
Oc1ccc(C(=C(Cl)Cl)c2ccc(O)cc2)cc1 | 0.782 | 9.95
COc1ccc(Nc2nc(N/N=C/c3ccc(O)cc3)nc(Nc3ccc([N+](=O)[O-])cc3)n2)cc1 | 31.8 | 15.3
COc1cc2cc(C(=O)Nc3ccccc3)c(N)nc2cc1OC | 1.39 | 17.1
CC1CCCCN1CCCNC(=O)c1ccc2c(c1)sc1nc(-c3ccc(F)cc3)cn12 (configuration not stated) | 9.76 | 33.2
COc1cc(-c2nc(-c3ccccc3)c(-c3ccccc3)[nH]2)cc(OC)c1O | 18 | 17
CC(C)(C)C(=O)Nc1ccc(C(=O)Nc2cccc(-c3nc4ccccc4[nH]3)c2)cc1 | 8.19 | 10.8
CCCCc1c(CCC)c(=N)c2ccccc2n1C | -5.96 | 6.04
COc1ccc(C2C(C(=O)Nc3cccc(OC)c3)c3ccccc3C(=O)N2C2CCCCC2)cc1 (configuration not stated) | 29 | 19.5
O=C(Nc1ccc(Cl)cc1C(=O)Nc1ccncc1)c1ccc(Cl)cc1Cl | 27.7 | 30
O=C(NNc1cc(N2CCCC2)nc(N2CCCC2)n1)c1ccccc1 | 30.6 | 12

Compound | inhibition at 25 µM [1] [%] | inhibition at 25 µM [2] [%]
COc1ccc(C2Sc3ccccc3N=C3C2=C(O)c2ccccc23)cc1 (configuration not stated) | -1.58 | 8.41
Oc1c(CN2CCN(c3ccccc3F)CC2)cc(Br)c2cccnc12 | 30.2 | 21.8
COc1ccc(-c2cn3c(C(=O)Nc4ccccc4Cl)c(-c4ccccc4)c4c3n2CCCC4)cc1 | 2.56 | 8.39
CCOC(=O)c1c(C)n(-c2ccc(Cl)cc2)c2ccc(OC(=O)C=Cc3ccccc3)cc12 | 18.8 | 25.1
CCCc1cc(O)c2c3c(c(=O)oc2c1)CN(C)CC3 | 14.1 | 16
Cc1cccc(-n2ncc3c(O)nc(-n4nc(C)cc4NC(=O)c4cc5ccccc5o4)nc32)c1 | 48.2 | 48.5
COc1ccc2nc(C)cc(Nc3ccc(Cl)cc3)c2c1 | 7.32 | 41.2
Cc1cc(C)c2c(c1)OCN(Cc1ccccc1Cl)C2 | 12 | 9.78
COc1ccc(C(C)=O)cc1N1C(=O)C2C(C1=O)C1(c3ccccc3)C(=O)C2(c2ccccc2)C(c2ccc(C)cc2)=C1c1ccc(C)cc1 (configuration not stated) | 28.1 | 22.4
C=CC12CCN(CC1)C(C(O)c1ccnc3ccc(OC)cc13)C2 (configuration not stated) | 18.8 | 27.2
O=C(Nc1ccc(-c2nc3cc(NC(=O)c4ccc(Cl)cc4)ccc3[nH]2)cc1)c1ccc(Cl)cc1 | 17.6 | 11.7
Cc1ccc(-c2cc3c(SCC(=O)Nc4cc(C(F)(F)F)ccc4Cl)nccn3n2)cc1 | 8.19 | 3.25
CCOC(=O)c1ccc2nc(-c3ccccc3)cc(O)c2c1 | 15.5 | 14.6
Oc1ccccc1CN1CCN(C(c2ccccc2)c2ccccc2)CC1 | 28.8 | 33.3
OC1=C2C(=Nc3ccccc3SC2c2ccccc2)c2ccccc21 (configuration not stated) | 14.1 | 8.39
Cc1sc(NC(=O)c2ccccc2)c(C(c2cccs2)N2CCN(c3ccccc3)CC2)c1C (configuration not stated) | 13 | 7.6
Cc1cc(C=C2SC(=Nc3ccccc3)N(C3CCCC3)C2=O)c(C)n1-c1ccc(Cl)cc1 | -1.41 | 2.04
CCCn1c(=N)c(C(=O)NC2CCCCC2)cc2c(=O)n3cccc(C)c3nc21 | 2.38 | -4.62
Oc1ccccc1CN1CCC2(CCCN(Cc3ccccc3F)C2)C1 (configuration not stated) | 9.59 | 50.6
c1ccc(-c2ccc(-c3nc4ccccc4[nH]3)cc2)cc1 | 0.513 | 20.6
CCOC(=O)c1c[nH]c2c(CC)cccc2c1=O | 11.1 | 4.62
COc1ccccc1NC1=C(N2CCCCC2)C(=O)c2ccccc2C1=O | 24.8 | 13.3
CCCCCC(=O)N1c2ccccc2N=C2CC(c3ccc(OC)c(OC)c3)CC(O)=C2C1c1ccc(C(F)(F)F)cc1 (configuration not stated) | 16 | 12.5
CCOc1cccc(C(=O)Nc2ccc(-c3nc4ccccc4[nH]3)cc2)c1 | 18 | 15.5
